Data on one molecule can be found in patent publication US7449495B2, “Retinoid derivatives with antiangiogenic, antitumoral and proapoptotic activities” (Sigma-Tau Industrie Farmaceutiche Riunite S.p.A., priority 2001, dated 2008).

Common to all, as to type: cell-based
In assay [1] the test system is Human ovarian carcinoma IGROV-1. As to the kind of experiment: Cytotoxicity test (sulphorodamine B), IGROV-1. As to conditions: 24 h incubation, survival 48 h after removal. An excerpt: (§1) Different cell lines deriving from solid tumors were also used. • 1. Human prostate carcinoma PC3 and DU145. These cell lines were maintained in RPMI 1640 medium containing 10% FCS, 1% sodium pyruvate and 1% glutamine; • 2. Human colon adenocarcinoma LoVo. This cell line was maintained in HAM's F-12 medium, containing 10% FCS and 1% glutamine. • 3. Human ovarian carcinoma such as A2780 and A2780/Dx, sensitive and resistant to drugs, respectively (doxorubicin, taxol, etoposide, vincristine); IGROV-1 and IGROV-1/Pt, sensitive and resistant to platinum-based chemotherapy, respectively, were maintained in RPMI 1640 medium containing 10% FCS, 1% sodium pyruvate and 1% glutamine; • 4. Human melanoma MeWo and MeS 2.21, glioblastoma GBM, no small cell lung carcinomas A431, NCI—H460, osteosarcomas SAOS and U2OS were maintained in RPMI 1640 medium containing 10% FCS, 1% sodium pyruvate and 1% glutamine.
(§2) The cytotoxicity tests were carried out using NB4 or HL-60 cells in suspension (10000/well). The cells were seeded in a volume of 250 μl in 96 well plates and incubated for 24 hours at 37° C. […] The optical density was measured using a Multiskan spectrophotometer at 540 nm. […]
(§3) Cell survival was determined by incubation with ST1926 for 24 hours, 48 hours after the removal of the compound. […]

The test system of the next assay is osteosarcoma U2OS. Kind of assay: Cytotoxicity test (sulphorodamine B), U2OS. The note with it: Homo sapiens, 24 h incubation, survival 48 h after removal.
From the text: as §1, §2, §3

For assay [2], the system named is M109 murine lung carcinoma cells. Kind of assay: Cytotoxicity in combination with TRAIL, M109. As to conditions: M109, 72 hours, value >1 synergism (FIG. 2). As to the method:
FIG. 2 is a graph showing the interaction between ST1926 and TRAIL in M109 murine lung carcinoma cells at different concentrations of TRAIL.
A study of cytotoxicity of ST1926 in combination with TRAIL was performed in two different tumor cell lines such as M109 murine lung carcinoma and A2780/Dx multidrug-resistant human ovarian carcinoma. Cells were maintained in RPMI 1640 medium containing 10% FCS, 1% sodium pyruvate and 1% glutamine.
The cells were seeded in a volume of 250 μl in 96 well plates and incubated for 24 hours at 37° C. The following day, test compound ST 1926 [(2E)-3-[3′-(1-Adamantyl)-4′-hydroxy[1,1′-biphenyl]-4-yl]-2-propenoate/ic acid] or TRAIL were added at increasing concentrations, and the cells were incubated for a further 72 hours at 37° C. in a humidified atmosphere containing 5% CO2. On the 5th day, the supernatant was removed by upturning the plates. 200 μl of PBS and 50 μl of cold, 80% TCA were added. The plates were then left to incubate on ice for at least 1 hour. The TCA was removed by upturning; the plates were washed three times by immersion in distilled water and dried first on paper, then with a jet of hot air. […] The optical density was measured using a Multiskan spectrophotometer at 540 nm.
The interaction between ST1926 and TRAIL was determined by using the analysis of Drewinko et al. (Cancer Biochem. Biophys. 1: 187-195, 1976). […]

For orientation: IC50 means the point on the concentration scale where inhibition reaches its midpoint. A high value points to weaker potency. In the case of `O=C(O)/C=C/c1ccc(-c2ccc(O)c(C34CC5CC(CC(C5)C3)C4)c2)cc1` [ST1926, E-4-(3-(1-adamantyl)-4-hydroxyphenyl)cinnamic acid], the IC50 was determined as 230 nM in assay [1] and 260 nM in the assay on osteosarcoma U2OS. In addition, the “interaction between ST1926 and TRAIL (analysis of Drewinko et al.)” value in assay [2] is given as “synergic activity”.
